Source: ChEMBL document CHEMBL5226385, “The Antiangiogenic and Antitumor Effects of Scoparasin B in Non-Small-Cell Lung Cancer” (J Nat Prod, 2023)
Calls of active or inactive are those of the source. The calls are words filed in the database; no cut-off is given here.

Tests used:
[1] = target: Vascular endothelial growth factor receptor 2 (Homo sapiens) (UniProt P35968); assay: Inhibition of VEGF-A-mediated VEGFR2 signaling pathway in human HUVEC cells assessed as reduction in VEGFR2 phosphorylation at Tyr1175 residue at 5 to 15 nM incubated for 36 hrs by western blot analysis; format: cell-based; conditions: dose 5-15 nM
[2] = Toxicity against BALB/c nude mouse xenografted with human NCI-H1299 cells assessed as morphological changes in heart at 0.75 to 1.5 mg/kg, ip administered every other day for 20 days by Hematoxylin and eosin staining based inverted microscopic analysis; format: organism-based; conditions: in vivo, 480 h, dose 0.75-1.5 mg/kg, time 20 day
[3] = test system: NCI-H1299; assay: Downregulation of Snail mRNA expression in human NCI-H1299 cells at 5 to 15 nM incubated for 24 hrs by qPCR analysis; format: functional, cell-based; conditions: dose 5-15 nM
[4] = test system: Mus musculus; assay: Inhibition of tumor angiogenesis in BALB/c nude mouse xenografted with human NCI-H1299 cells assessed as reduction in […] cells in tumor at 1.5 mg/kg, ip administered every other day for 20 days by immunohistochemical analysis; format: functional, organism-based; conditions: time 20.0 day
[5] = test system: HUVEC; assay: Antiangiogenic activity against human HUVEC cells assessed as inhibition of cell migration measured after 8 hrs by scratch wound healing assay; format: functional, cell-based; conditions: dose 5-15 nM
[6] = test system: NCI-H460; assay: Cytotoxicity against human NCI-H460 cells assessed as reduction in cell viability measured after 72 hrs by MTT assay; format: functional, cell-based; conditions: NCI-H460, 72 h
[7] = test system: HMEC-1; assay: Downregulation of VEGFR2 protein expression in human HMEC-1 cells at 5 to 15 nM incubated for 36 hrs by western blot analysis; format: functional, cell-based; conditions: dose 5-15 nM
[8] = test system: NCI-H1299; assay: […] of E-Cadherin protein expression in human NCI-H1299 cells at 5 to 15 nM incubated for 24 hrs by western blot analysis; format: functional, cell-based; conditions: dose 5-15 nM
[9] = target: Vascular endothelial growth factor receptor 2 (Homo sapiens) (UniProt P35968); assay: Inhibition of VEGF-A-mediated VEGFR2 signaling pathway in human HUVEC cells assessed as reduction in mTOR phosphorylation at Ser2448 residue at 5 to 15 nM incubated for 36 hrs by western blot analysis; format: cell-based; conditions: dose 5-15 nM
[10] = test system: HUVEC; assay: Cytotoxicity against human HUVEC cells assessed as reduction in cell proliferation upto 25 nM measured after 48 hrs by CCK8 assay; format: toxicity, cell-based; conditions: 0.025 µM
[11] = test system: NCI-H1299; assay: Antitumor activity against human NCI-H1299 cells xenografted in BALB/c nude mouse assessed as increase in tumor necrotic areas at 0.75 to 1.5 mg/kg, ip administered every other day for 20 days by Hematoxylin and eosin staining based inverted microscopic analysis; format: functional, organism-based; conditions: dose 0.75-1.5 mg/kg, time 20.0 day
[12] = species on record: Rattus norvegicus; assay: Ex vivo antiangiogenic activity against Sprague-Dawley rat aorta rings assessed as reduction in microvessel sprouting from aortic rings by measuring reduction in total microvessel lengths measured after 6 days by microscopic analysis; format: functional; conditions: dose 5-20 nM, time 6.0 day
[13] = test system: HMEC-1; assay: Antiangiogenic activity against human HMEC-1 cells assessed as inhibition of capillary tube-like structure formation incubated for 6 hrs by Matrigel based analysis; format: functional, cell-based; conditions: dose 5-20 nM
[14] = test system: HMEC-1; assay: Inhibition of VEGF-A secretion in human HMEC-1 cells incubated for 36 hrs by ELISA; format: functional, cell-based; conditions: dose 5-15 nM
[15] = Toxicity against BALB/c nude mouse xenografted with human NCI-H1299 cells assessed as morphological changes in lungs at 0.75 to 1.5 mg/kg, ip administered every other day for 20 days by Hematoxylin and eosin staining based inverted microscopic analysis; format: organism-based; conditions: in vivo, 480 h, dose 0.75-1.5 mg/kg, time 20 day
[16] = test system: NCI-H1299; assay: Inhibition of vasculogenic-mimicry in human NCI-H1299 cells assessed as inhibition of cell invasion at 5 to 15 nM measured after 24 hrs by Transwell invasion assay; format: functional, cell-based; conditions: dose 5-15 nM
[17] = target: Vascular endothelial growth factor receptor 2 (Homo sapiens) (UniProt P35968); assay: Inhibition of VEGF-A-mediated VEGFR2 signaling pathway in human HMEC-1 cells assessed as reduction in FAK phosphorylation at Tyr397 residue at 5 to 15 nM incubated for 36 hrs by western blot analysis; format: cell-based; conditions: dose 5-15 nM
[18] = target: Vascular endothelial growth factor receptor 2 (Homo sapiens) (UniProt P35968); assay: Inhibition of VEGF-A-mediated VEGFR2 signaling pathway in human HUVEC cells assessed as reduction in FAK phosphorylation at Tyr397 residue at 5 to 15 nM incubated for 36 hrs by western blot analysis; format: cell-based; conditions: dose 5-15 nM
[19] = test system: HMEC-1; assay: Cytotoxicity against human HMEC-1 cells assessed as reduction in cell proliferation upto 25 nM measured after 48 hrs by CCK8 assay; format: toxicity, cell-based; conditions: hmec-1, 48 h, 0.025 µM
[20] = test system: NCI-H1299; assay: Downregulation of Vimentin mRNA expression in human NCI-H1299 cells at 5 to 15 nM incubated for 24 hrs by qPCR analysis; format: functional, cell-based; conditions: dose 5-15 nM
[21] = test system: NCI-H1299; assay: Antitumor activity against human NCI-H1299 cells xenografted in BALB/c nude mouse assessed as reduction in tumor weight at 0.75 to 1.5 mg/kg, ip administered every other day for 20 days; format: functional, organism-based; conditions: dose 0.75-1.5 mg/kg, time 20.0 day
[22] = Toxicity against BALB/c nude mouse xenografted with human NCI-H1299 cells assessed as morphological changes in spleen at 0.75 to 1.5 mg/kg, ip administered every other day for 20 days by Hematoxylin and eosin staining based inverted microscopic analysis; format: organism-based; conditions: in vivo, 480 h, dose 0.75-1.5 mg/kg, time 20 day
[23] = test system: HMEC-1; assay: Antiangiogenic activity against human HMEC-1 cells assessed as inhibition of cell invasion measured after 24 hrs by Transwell invasion assay; format: functional, cell-based; conditions: dose 5-15 nM
[24] = test system: NCI-H1299; assay: Antitumor activity against human NCI-H1299 cells xenografted in BALB/c nude mouse assessed as tumor volume at 1.5 mg/kg, ip administered every other day for 20 days by vernier caliper analysis (reference value: 1206.46 +/-332.44 mm3); format: functional; conditions: time 20 day
[25] = test system: NCI-H1299; assay: Antitumor activity against human NCI-H1299 cells xenografted in BALB/c nude mouse assessed as tumor volume at 0.75 mg/kg, ip administered every other day for 20 days by vernier caliper analysis (reference value: 1206.46 +/-332.44 mm3); format: functional; conditions: time 20 day
[26] = test system: HBVP; assay: Inhibition of PDGF-BB protein expression in human HBVP cells at 5 to 15 nM incubated for 24 hrs by western blot analysis; format: functional, cell-based; conditions: dose 5-15 nM
[27] = test system: NCI-H1299; assay: Cytotoxicity against human NCI-H1299 cells assessed as reduction in cell viability at 25 nM incubated for 48 hrs by CCK8 assay; format: toxicity, cell-based; conditions: nci-h1299, 48 h, 0.025 µM
[28] = test system: Mus musculus; assay: Inhibition of vasculogenic-mimicry in BALB/c nude mouse xenografted with human NCI-H1299 cells assessed as reduction in pericyte coverage around CD31-positive endothelial blood vessels at 0.75 to 1.5 mg/kg, ip administered every other day for […] by immunofluorescence analysis; format: functional, organism-based; conditions: dose 0.75-1.5 mg/kg
[29] = test system: NCI-H1299; assay: Downregulation of N-Cadherin protein expression in human NCI-H1299 cells at 5 to 15 nM incubated for 24 hrs by western blot analysis; format: functional, cell-based; conditions: dose 5-15 nM
[30] = test system: NCI-H1299; assay: Upregulation of E-Cadherin mRNA expression in human NCI-H1299 cells at 5 to 15 nM incubated for 24 hrs by qPCR analysis; format: functional, cell-based; conditions: dose 5-15 nM
[31] = test system: HBVP; assay: Inhibition of cell adhesion in human HBVP cells assessed as reduction in cell adhesion number at 5 to 15 nM pretreated with compound for 24 hrs followed by culturing for 1 hr by crystal violet staining based inverted microscopic analysis; format: functional; conditions: dose 5-15 nM, time 25.0 hrs
[32] = target: Vascular endothelial growth factor receptor 2 (Homo sapiens) (UniProt P35968); assay: Inhibition of VEGF-A-mediated VEGF-R2 signaling pathway in human NCI-H1299 cells assessed as reduction in VEGF-R2 phosphorylation at Tyr1175 residue at 5 to 15 nM by western blot analysis; format: cell-based; conditions: dose 5-15 nM

Vascular endothelial growth factor receptor 2 (Homo sapiens), sequence (P35968 whole entry): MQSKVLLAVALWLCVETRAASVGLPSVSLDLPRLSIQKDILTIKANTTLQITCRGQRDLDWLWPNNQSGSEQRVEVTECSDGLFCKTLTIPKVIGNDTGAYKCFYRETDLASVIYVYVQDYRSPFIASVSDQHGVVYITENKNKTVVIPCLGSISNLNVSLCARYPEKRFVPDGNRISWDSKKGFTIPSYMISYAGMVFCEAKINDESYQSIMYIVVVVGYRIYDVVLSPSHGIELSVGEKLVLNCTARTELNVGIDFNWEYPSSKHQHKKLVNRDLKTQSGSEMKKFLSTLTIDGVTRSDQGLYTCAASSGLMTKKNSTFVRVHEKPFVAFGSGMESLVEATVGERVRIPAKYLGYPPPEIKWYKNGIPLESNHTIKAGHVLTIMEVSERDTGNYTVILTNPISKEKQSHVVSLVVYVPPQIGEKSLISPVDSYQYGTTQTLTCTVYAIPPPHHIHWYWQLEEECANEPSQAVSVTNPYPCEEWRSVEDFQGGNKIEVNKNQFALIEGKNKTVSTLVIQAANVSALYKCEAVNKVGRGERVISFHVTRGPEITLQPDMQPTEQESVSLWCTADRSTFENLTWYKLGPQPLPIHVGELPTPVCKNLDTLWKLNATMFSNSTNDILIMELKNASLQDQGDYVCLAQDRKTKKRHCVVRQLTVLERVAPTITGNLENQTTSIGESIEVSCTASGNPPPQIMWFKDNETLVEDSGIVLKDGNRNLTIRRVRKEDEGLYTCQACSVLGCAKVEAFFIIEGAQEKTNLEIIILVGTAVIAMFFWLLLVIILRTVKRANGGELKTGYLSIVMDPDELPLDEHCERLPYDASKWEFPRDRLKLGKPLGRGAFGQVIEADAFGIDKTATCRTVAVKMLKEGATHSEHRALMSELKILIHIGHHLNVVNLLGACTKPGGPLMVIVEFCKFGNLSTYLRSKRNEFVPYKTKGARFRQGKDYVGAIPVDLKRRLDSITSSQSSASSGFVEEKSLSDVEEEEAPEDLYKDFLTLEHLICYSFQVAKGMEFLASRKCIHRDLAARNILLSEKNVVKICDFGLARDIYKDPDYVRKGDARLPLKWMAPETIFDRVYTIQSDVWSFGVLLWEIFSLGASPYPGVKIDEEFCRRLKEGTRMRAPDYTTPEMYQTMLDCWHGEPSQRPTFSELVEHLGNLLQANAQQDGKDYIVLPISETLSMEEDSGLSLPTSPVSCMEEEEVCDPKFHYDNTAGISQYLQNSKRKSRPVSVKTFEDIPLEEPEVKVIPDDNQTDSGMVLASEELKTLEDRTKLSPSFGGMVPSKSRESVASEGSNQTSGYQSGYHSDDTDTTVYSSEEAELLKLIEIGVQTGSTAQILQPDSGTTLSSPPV

SMILES: COc1ccc(C[C@@H]2NC(=O)[C@@]34OC(=O)O/C=C/[C@@](C)(O)C(=O)[C@@H](C)C/C=C/[C@H]3[C@H](O)[C@](C)(O)[C@@H](C)[C@@H]24)cc1 [SCOPARASIN B]
- inhibition [1]: Active
- Activity [2]: Non-Toxic
- inhibition [3]: Active
- inhibition [4]: Active
- Activity [5]: Dose-Dependent Effect
- IC50 [6]: 3.9 µM
- inhibition [7]: inactive
- inhibition [8]: Active
- inhibition [9]: Active
- Activity [10]: Non-Toxic
- Activity [11]: Active
- Activity [12]: Dose-Dependent Effect
- Activity [13]: Dose-Dependent Effect
- inhibition [14]: Dose-Dependent Effect
- Activity [15]: Non-Toxic
- inhibition [16]: Active
- inhibition [17]: Active
- inhibition [18]: Active
- Activity [19]: Non-Toxic
- inhibition [20]: Active
- Activity [21]: Active
- Activity [22]: Non-Toxic
- Activity [23]: Dose-Dependent Effect
- Activity [24]: 190.09 mm3
- Activity [25]: 559.86 mm3
- inhibition [26]: Active
- Activity [27]: Non-Toxic
- inhibition [28]: Active
- inhibition [29]: Active
- Activity [30]: Active
- inhibition [31]: Active
- inhibition [32]: Active
